Data published in patent publication US11607404B2, “Combinations of RAD51 and PARP inhibitors” (Cyteir Therapeutics, Inc., priority 2019, dated 2023).

What was measured:
HBCx12B model = assay: Tumor growth inhibition, subcutaneous engrafted tumor model; assay type: in vivo, mice; conditions: HRD Positive, RAD51 High, BRCA1 Meth, PALB2 WT, 67A 80 mg/kg QD, olaparib 100 mg/kg QD, combo both
Description: (§1) Immunodeficient mice were subcutaneously engrafted in the rear flank with the tumor cells. The tumors were allowed to grow to a size of about 100 to about 200 mm^3 prior to being randomized and grouped into treatment arms. For models […] through […] the four treatment arms were vehicle, Compound 67A at 80 mg/kg QD, olaparib at 100 mg/kg QD, and Compound 67A+Olaparib at 80 mg/kg QD and 100 mg/kg QD, respectively. For models J000101173 through TM00091 the treatment arms were vehicle, Compound 67A at 40 mg/kg QD, olaparib at 50 mg/kg QD, and Compound 67A+Olaparib at 40 mg/kg QD and 50 mg/kg QD, respectively. The tumors were measured either once weekly or twice weekly.
(§2) Percent Tumor Growth Inhibition (% TGI) was calculated by taking the mean volume of each of the treatment arms, and comparing the treatment arms to the vehicle arms using the following equation

HBCx17 model = assay: as above; assay type: in vivo, mice; conditions: HRD Positive, RAD51 High, BRCA2 Mut, PALB2 WT, 67A 80 mg/kg QD, olaparib 100 mg/kg QD, combo both
Description: as §1, §2

TM00091 model = assay: as above; assay type: in vivo, mice; conditions: HRD Positive, RAD51 High, BRCA1 Mut, PALB2 WT, 67A 40 mg/kg QD, olaparib 50 mg/kg QD, combo both
Description: as §1, §2

TM00096 model = assay: as above; assay type: in vivo, mice; conditions: HRD Positive, RAD51 Low, BRCA WT, PALB2 WT, 67A 40 mg/kg QD, olaparib 50 mg/kg QD, combo both
Description: as §1, §2

T298 model = assay: as above; assay type: in vivo, mice; conditions: HRD Positive, RAD51 Low, BRCA WT, PALB2 Mut, 67A 80 mg/kg QD, olaparib 100 mg/kg QD, combo both
Description: as §1, §2

HBCx11 model = assay: as above; assay type: in vivo, mice; conditions: HRD Positive, RAD51 High, BRCA1 Mut, PALB2 WT, 67A 80 mg/kg QD, olaparib 100 mg/kg QD, combo both
Description: as §1, §2

TM000113 model = assay: as above; assay type: in vivo, mice; conditions: HRD Negative, RAD51 Low, BRCA WT, PALB2 WT, 67A 40 mg/kg QD, olaparib 50 mg/kg QD, combo both
Description: as §1, §2

HBCx16 model = assay: as above; assay type: in vivo, mice; conditions: HRD Positive, RAD51 High, BRCA1 Meth, PALB2 WT, 67A 80 mg/kg QD, olaparib 100 mg/kg QD, combo both
Description: as §1, §2

HBCx27 model = assay: as above; assay type: in vivo, mice; conditions: HRD Negative, RAD51 High, BRCA WT, PALB2 WT, 67A 80 mg/kg QD, olaparib 100 mg/kg QD, combo both
Description: as §1, §2

HBCx23 model = assay: as above; assay type: in vivo, mice; conditions: HRD Positive, RAD51 High, BRCA1 Meth, PALB2 WT, 67A 80 mg/kg QD, olaparib 100 mg/kg QD, combo both
Description: as §1, §2

J000100675 model = assay: as above; assay type: in vivo, mice; conditions: HRD Negative, RAD51 Low, BRCA WT, PALB2 WT, 67A 40 mg/kg QD, olaparib 50 mg/kg QD, combo both
Description: as §1, §2

J000101173 model = assay: as above; assay type: in vivo, mice; conditions: HRD Positive, RAD51 Low, BRCA WT, PALB2 WT, 67A 40 mg/kg QD, olaparib 50 mg/kg QD, combo both
Description: as §1, §2

TM00090 model = assay: as above; assay type: in vivo, mice; conditions: HRD Positive, RAD51 Low, BRCA1 Meth, BRCA2 Mut, PALB2 WT, 67A 40 mg/kg QD, olaparib 50 mg/kg QD, combo both
Description: as §1, §2

TM01079 model = assay: as above; assay type: in vivo, mice; conditions: HRD Positive, RAD51 Low, BRCA1 Meth, PALB2 WT, 67A 40 mg/kg QD, olaparib 50 mg/kg QD, combo both
Description: as §1, §2

HBCx1 model = assay: as above; assay type: in vivo, mice; conditions: HRD Positive, RAD51 High, BRCA WT, PALB2 WT, 67A 80 mg/kg QD, olaparib 100 mg/kg QD, combo both
Description: as §1, §2

[1] = tested on: ARPE19/HPV16, KYSE-70 and Daudi cell lines; assay: Combination matrix study Compound 67A + PARP inhibitors, cell lines of varying AID expression (Bliss, Loewe); assay type: cell-based; conditions: non-tumor derived cell line ARPE19/HPV16; in combination with Compound 67A
Description: The combination matrix was tested in 3 cell lines of varying AID expression: ARPE19/HPV16 (HPV immortalized normal epithelial cell line), KYSE-70 (head and neck cancer cell line) and Daudi (Burkitt's Lymphoma cell line). […] Both the Loewe Additivity model and the Bliss Independence model were used to determine drug interaction (synergistic, independent, or antagonistic).
Bliss Independence model was used and calculated in Excel. The model assumes that the drugs act with probabilistic independence. Bliss: yexp=yA+yB−yAyB
This expected value was generated by examining single-agent effects and then tested against the observed value using a two-tailed Welch's T-Test. For visualization purposes, the values generated from this test were transformed to a “Synergy Score” by doing the computation:
Loewe Additivity model was used and calculated by the “Synergyfinder” R package.
The graphs generated describe the difference between the expected value generated by the additivity model and the observed value generated by the experiment. If the effect determined by the additivity model<the effect observed the space is colored red, if the effect determined by the additivity mode>the effect observed then the space is colored green. The saturation of the color is proportional to the magnitude of the difference between these two values.

Q: Which results are given for `O=C(c1cc(Cc2n[nH]c(=O)c3ccccc23)ccc1F)N1CCN(C(=O)C2CC2)CC1` [Olaparib, olaparib, reference compound]?
A: % TGI (HBCx12B model): 42.56%; % TGI (HBCx17 model): 122%; % TGI (TM00091 model): 21.26%; % TGI (TM00096 model): −1.94%; % TGI (T298 model): 107%; % TGI (HBCx11 model): 60.95%; % TGI (TM000113 model): 2.37%; % TGI (HBCx16 model): −25.61%; % TGI (HBCx27 model): 7.819%; % TGI (HBCx23 model): 84.48%; % TGI (J000100675 model): −17%; % TGI (J000101173 model): 4.71%; % TGI (TM00090 model): 86.05%; % TGI (TM01079 model): 68.7%; % TGI (HBCx1 model): 51.07%; Drug interaction with Compound 67A (synergy) [1]: synergy observed
